Our source for the IC50 values is BindingDB's records for doi:10.1021/jm00042a004 (College of Pharmacy, 1994).

Test [1] addresses Reverse transcriptase/RNase H (HIV-1). Description: The 50% inhibitory concentration was measured as inhibition of RNA-dependent DNA polymerase activity.
Test [2] has the same target. Description: The 50% inhibitory concentration was measured as inhibition of DNA-dependent DNA polymerase activity.

pIC50: −log10 of the molar value.

One may read the pIC50 as the negative decadic logarithm of the IC50, by convention in mol/L. Read a low pIC50 as a high IC50. Turning to `CCCCCCCCCCCCCCCC(=O)Nc1c(O)cc(S(=O)(=O)O)c2ccccc12` [4-Hexadecanoylamino-3-hydroxy-naphthalene-1-sulfonic acid], the pIC50 in test [1] is 5.49.

`CCCCCCCCCCCCCCCC(=O)Nc1ccc(S(=O)(=O)O)c2cccc(S(=O)(=O)O)c12` [4-Hexadecanoylamino-naphthalene-1,5-disulfonic acid]: the figures for the pIC50 in test [2] and in test [1] were 5.17 and 5.80, respectively.

For the molecule `O=C(Oc1cc(S(=O)(=O)O)cc2cc(S(=O)(=O)O)ccc12)c1ccc(-c2ccc(C(=O)Oc3cc(S(=O)(=O)O)cc4cc(S(=O)(=O)O)ccc34)cc2)cc1` [Biphenyl-4,4'-dicarboxylic acid bis-(3,6-disulfo-naphthalen-1-yl) ester], the values for the pIC50 in test [2] and in test [1] were 5.16 and 5.47, respectively.

With `O=S(=O)(O)c1ccc2c(OS(=O)(=O)c3cccc4c(S(=O)(=O)Oc5cc(S(=O)(=O)O)cc6cc(S(=O)(=O)O)ccc56)cccc34)cc(S(=O)(=O)O)cc2c1` [4-[5-(3,6-disulfo-1-naphthyloxysulfonyl)-1-naphthylsulfonyloxy]-2,7-naphthalenedisulfonic acid], the pIC50 is 4.04 in test [2] and 5.37 in test [1].
